# Assay results taken from PMC4740378, “Export of malaria proteins requires co-translational processing of the PEXEL motif independent of phosphatidylinositol-3-phosphate binding” (Nature Communications, 2016).
# Target: T1, p40PX (GST-p40PX, aa 1-148) (Homo sapiens, UniProt Q15080)
# T1 construct: gene NCF4; PX domain, residues 1-148, N-terminal GST fusion (pGEX; glutathione-purified, detected with anti-GST), E. coli
# T1 sequence (Q15080 1-148): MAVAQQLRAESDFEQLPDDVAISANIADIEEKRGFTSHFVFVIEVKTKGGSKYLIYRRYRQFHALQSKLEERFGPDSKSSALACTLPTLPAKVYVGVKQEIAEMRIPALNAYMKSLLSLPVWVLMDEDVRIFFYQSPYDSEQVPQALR
# Test: SPR, Biacore […], L1 chip with liposomes
# Format: binding
# Details: PC:PE:PI(3)P 75:20:5 liposomes, PC/PE control subtracted; 150 mM NaCl, 50 mM HEPES pH 7.5, 25 °C; own-purified protein
smiles,measurement,value
"CCCCCCCCCCCCCCCC(=O)OC[C@H](COP(=O)(O)O[C@@H]1[C@H](O)[C@H](OP(=O)(O)O)[C@@H](O)[C@H](O)[C@H]1O)OC(=O)CCCCCCCCCCCCCCC [PI(3)P-diC16, D-myo-phosphatidylinositol 3-phosphate di-C16]",Kd,0.195 µM
